In patent US9956204B2, “Composition for exterminating scuticociliates in fish including mebendazole” (NATIONAL INSTITUTE OF FISHERIES SCIENCE, priority 2016, dated 2018):

What was measured:
lysozyme = conditions: in vivo
Description: (§1) Mebendazole was orally or immersing administered at a concentration of 100 or 500 mg/kg BW (ppm) to the olive flounder once for 1 hour. After 6 hours, 1 day, 2 days, 7 days and 14 days, a blood chemistry analysis and an immunological analysis were conducted.
The immunological analysis was conducted to measure the lysozyme activity of the kidney, spleen and serum (Lange et al., 2001, Parry, R. M. Chandau, R. C. & Shahani, R. M. (1965). A rapid and sensitive assay of muramidase. Proceedings of the Society for Experimental Biology Medicine 119, 384-386). In brief explanation, 100 μl of the prepared plasma was diluted with PBS (pH 6.2) in 2-fold to 4 steps on a 96-well plate and 100 μg of Micrococcus lysodekiticus (Sigma, USA) liquid diluted with PBS (pH 6.2) to 0.4 mg/ml was added to each well. After that, absorbance at 590 nm was measured every 0, 15, 30, 45 and 60 minutes. One unit of lysozyme activity was converted into the amount of a sample that decreases the absorbance 0.001/min.

scuticociliates [1] = assay: Clinical trial: cumulative mortality of olive flounder artificially infected with scuticociliates; type: in vivo; conditions: observed for 15 days
Description: For the artificial infection, 1×10^5 of scuticociliates per fish were intraperitoneally injected into a total of […] juvenile olive flounder (average 10 cm). The experiment was performed by dividing them into 5 groups of every 20 fish per each experiment.

[2] = Safety test according to field test: blood chemistry in Wando, Pohang and Jeju farms; conditions: field application concentration range
Description: as §1
(§2) The blood chemistry analysis was conducted using Fuji-Dri Chem 4500 (Fuji company, Japan) to measure hemoglobin (Hb), hematocrit (Ht), glucose (GLU), total protein (TP), total cholesterol (TCHO), GOT/GPT and lactic acid (LDH), etc.

scuticociliates [3] = assay: Scuticociliates extermination effect of candidate substances in seawater medium; type: cell-based
Description: For this, scuticociliates were cultured in CHSE-214 cell line (using MEM medium), and then scuticociliates were collected and centrifuged with sterilized seawater or artificial seawater (20‰) to replace them with a seawater medium. Each of 100 μl (1×10^5) was dispensed into each well of 96 wells, followed by further culture for 30 minutes. The candidate substances diluted in seawater to have a volume of 100 μl per each concentration were mixed with scuticociliates to have the final volume of 200 μl and cultured for 4 hour.

scuticociliates [4] = assay: Field test of Mebendazole for exterminating scuticociliates in olive flounder farms; type: in vivo
Source text: The pharmaceutical efficacy was investigated after administering Mebendazole once daily for 5˜7 days to the olive flounder which are infected with scuticociliates in three major domestic olive flounder aquaculture area (Jeju, Wando, Pohang). First, the natural scuticociliates infection rate of each olive flounder farm was investigated, and the efficacy was investigated after administering Mebendazole accordingly. [table]

[5] = in vivo
Description: as §1, §2

scuticociliates [6] = assay: Scuticociliates extermination effect of candidate substances in MEM medium; type: cell-based
Description: CHSE-214 cell line into which scuticociliates were inoculated was cultured in advance. The CHSE-214 cell line was cultured in an incubator using an MEM medium at 22° C. Scuticociliates inoculated into the cell line proliferated for 3 days by which the number reaches to be capable of analyzing in vitro anti-scuticociliates effect. Scuticociliates that feed on the cell line and sufficiently grow were mixed with the candidate substance and the activity of scuticociliates was measured.
In order to analyze the antiparasitic activity of the above 19 types of candidate substances of scuticociliates extermination drugs, scuticociliates were cultured for 3 days, and 100 μl (1×10^5) was dispensed into each well of 96 wells. The candidate substances were diluted by each concentration and the final volume was dispensed into 100 μl. Thereafter, the two were mixed and finally made into 200 μl.

[7] = within 24~48 hours; cited from earlier work
[8] = seawater medium, 4 hour, Dosage 10 ppm
[9] = seawater medium, 4 hour, Dosage 50 ppm
[10] = seawater medium, 4 hour, Dosage 100 ppm
[11] = seawater medium, 4 hour, Dosage 200 ppm
[12] = seawater medium, 4 hour, Dosage 500 ppm
[13] = seawater medium, 4 hour, Dosage 600 ppm
[14] = seawater medium, 4 hour, Dosage 700 ppm
[15] = seawater medium, 4 hour, Dosage 1000 ppm
[16] = seawater medium, 4 hour, Dosage 1500 ppm
[17] = seawater medium, 4 hour, Dosage 2000 ppm
[18] = seawater medium, 4 hour, Dosage 2500 ppm
[19] = seawater medium, 4 hour, Dosage 3000 ppm
[20] = seawater medium, 4 hour, Dosage 3500 ppm
[21] = seawater medium, 4 hour, Dosage 4000 ppm

COC(=O)Nc1nc2ccc(C(=O)c3ccccc3)cc2[nH]1 [Mebendazole]
effect on activity of lysozyme in serum, spleen, kidney (lysozyme): does not affect the activity of lysozyme | cumulative mortality rate (scuticociliates [1]; immersion administration 100 ppm for 1 hour): remarkably decreased | cumulative mortality rate (scuticociliates [1]; oral administration once, feed with 200 ppm): remarkably decreased | liver index (GOT and GPT) of infected fish after administration [2]: lowered to the normal range | killing of scuticociliates compared with the 19 candidate substances (scuticociliates [3]; seawater medium): most effectively kills scuticociliates | Survival or Death of scuticociliates (activity and shape, microscope) (scuticociliates [3]; [8]): Survival | Survival or Death of scuticociliates (activity and shape, microscope) (scuticociliates [3]; [9]): Survival | Survival or Death of scuticociliates (activity and shape, microscope) (scuticociliates [3]; [10]): Death | Survival or Death of scuticociliates (activity and shape, microscope) (scuticociliates [3]; [11]): Death | Survival or Death of scuticociliates (activity and shape, microscope) (scuticociliates [3]; seawater medium, 4 hour, Dosage 300 ppm): Death | Survival or Death of scuticociliates (activity and shape, microscope) (scuticociliates [3]; seawater medium, 4 hour, Dosage 400 ppm): Death | Survival or Death of scuticociliates (activity and shape, microscope) (scuticociliates [3]; [12]): Death | Survival or Death of scuticociliates (activity and shape, microscope) (scuticociliates [3]; [13]): Death | Survival or Death of scuticociliates (activity and shape, microscope) (scuticociliates [3]; [14]): Death | Survival or Death of scuticociliates (activity and shape, microscope) (scuticociliates [3]; seawater medium, 4 hour, Dosage 800 ppm): Death | Survival or Death of scuticociliates (activity and shape, microscope) (scuticociliates [3]; seawater medium, 4 hour, Dosage 900 ppm): Death | Survival or Death of scuticociliates (activity and shape, microscope) (scuticociliates [3]; [15]): Death | infection of scuticociliates after administration (scuticociliates [4]; Juju farm, once daily for 5 days, infection rate before 50%): no infection of scuticociliates was detected | infection of scuticociliates after administration (scuticociliates [4]; Pohang farm, once daily for 7 days, infection rate before 70%): no infection of scuticociliates was detected | infection of scuticociliates after administration (scuticociliates [4]; Wando farm, once daily for 7 days, infection rate before 70%): no infection of scuticociliates was detected | MCHC numerical values [5]: did not show any significant differences | concentration of Hb in the blood [5]: slightly increases | killing of scuticociliates compared with the 19 candidate substances (scuticociliates [6]; MEM medium): effect of killing scuticociliates at the lowest concentration | Survival or Death of scuticociliates (activity and shape, microscope) (scuticociliates [6]; MEM medium, Dosage 10 ppm): Survival | Survival or Death of scuticociliates (activity and shape, microscope) (scuticociliates [6]; MEM medium, Dosage 50 ppm): Survival | Survival or Death of scuticociliates (activity and shape, microscope) (scuticociliates [6]; MEM medium, Dosage 100 ppm): Death | Survival or Death of scuticociliates (activity and shape, microscope) (scuticociliates [6]; MEM medium, Dosage 200 ppm): Death | Survival or Death of scuticociliates (activity and shape, microscope) (scuticociliates [6]; MEM medium, Dosage 300 ppm): Death | Survival or Death of scuticociliates (activity and shape, microscope) (scuticociliates [6]; MEM medium, Dosage 400 ppm): Death | Survival or Death of scuticociliates (activity and shape, microscope) (scuticociliates [6]; MEM medium, Dosage 500 ppm): Death | Survival or Death of scuticociliates (activity and shape, microscope) (scuticociliates [6]; MEM medium, Dosage 600 ppm): Death | Survival or Death of scuticociliates (activity and shape, microscope) (scuticociliates [6]; MEM medium, Dosage 700 ppm): Death | Survival or Death of scuticociliates (activity and shape, microscope) (scuticociliates [6]; MEM medium, Dosage 800 ppm): Death | Survival or Death of scuticociliates (activity and shape, microscope) (scuticociliates [6]; MEM medium, Dosage 900 ppm): Death | Survival or Death of scuticociliates (activity and shape, microscope) (scuticociliates [6]; MEM medium, Dosage 1000 ppm): Death | oral dose excreted in the urine [7]: 10%

CN1CCCN=C1/C=C/c1cccs1 [Pyrantel]
Survival or Death of scuticociliates (activity and shape, microscope) (scuticociliates [3]; [12]): Survival | Survival or Death of scuticociliates (activity and shape, microscope) (scuticociliates [3]; [15]): Survival | Survival or Death of scuticociliates (activity and shape, microscope) (scuticociliates [3]; [16]): Survival | Survival or Death of scuticociliates (activity and shape, microscope) (scuticociliates [3]; [17]): Survival | Survival or Death of scuticociliates (activity and shape, microscope) (scuticociliates [3]; [18]): Survival | Survival or Death of scuticociliates (activity and shape, microscope) (scuticociliates [3]; [19]): Survival | Survival or Death of scuticociliates (activity and shape, microscope) (scuticociliates [3]; [20]): Survival | Survival or Death of scuticociliates (activity and shape, microscope) (scuticociliates [3]; [21]): Survival | Survival or Death of scuticociliates (activity and shape, microscope) (scuticociliates [6]; MEM medium, Dosage 500 ppm): Survival | Survival or Death of scuticociliates (activity and shape, microscope) (scuticociliates [6]; MEM medium, Dosage 1000 ppm): Survival | Survival or Death of scuticociliates (activity and shape, microscope) (scuticociliates [6]; MEM medium, Dosage 1500 ppm): Survival | Survival or Death of scuticociliates (activity and shape, microscope) (scuticociliates [6]; MEM medium, Dosage 2000 ppm): Survival | Survival or Death of scuticociliates (activity and shape, microscope) (scuticociliates [6]; MEM medium, Dosage 2500 ppm): Survival | Survival or Death of scuticociliates (activity and shape, microscope) (scuticociliates [6]; MEM medium, Dosage 3000 ppm): Survival | Survival or Death of scuticociliates (activity and shape, microscope) (scuticociliates [6]; MEM medium, Dosage 3500 ppm): Survival | Survival or Death of scuticociliates (activity and shape, microscope) (scuticociliates [6]; MEM medium, Dosage 4000 ppm): Survival

CO[C@H]1C[C@H](O[C@@H]2/C(C)=C/C[C@@H]3C[C@@H](C[C@]4(CC[C@H](C)[C@@H](C5CCCCC5)O4)O3)OC(=O)[C@@H]3C=C(C)/C(=N/O)[C@H]4OC/C(=C\C=C\[C@@H]2C)[C@]43O)O[C@@H](C)[C@@H]1O [Selamectin]
Survival or Death of scuticociliates (activity and shape, microscope) (scuticociliates [3]): Survival and Δ and Death | Survival or Death of scuticociliates (activity and shape, microscope) (scuticociliates [6]): Survival and Δ and Death

c1ccc(C2CN3CCSC3=N2)cc1 (stereo not drawn) [Tetramisole]
Survival or Death of scuticociliates (activity and shape, microscope) (scuticociliates [3]; [12]): Survival | Survival or Death of scuticociliates (activity and shape, microscope) (scuticociliates [3]; [15]): Survival | Survival or Death of scuticociliates (activity and shape, microscope) (scuticociliates [3]; [16]): Survival | Survival or Death of scuticociliates (activity and shape, microscope) (scuticociliates [3]; [17]): Survival | Survival or Death of scuticociliates (activity and shape, microscope) (scuticociliates [3]; [18]): Survival | Survival or Death of scuticociliates (activity and shape, microscope) (scuticociliates [3]; [19]): Survival | Survival or Death of scuticociliates (activity and shape, microscope) (scuticociliates [3]; [20]): Survival | Survival or Death of scuticociliates (activity and shape, microscope) (scuticociliates [3]; [21]): Survival | Survival or Death of scuticociliates (activity and shape, microscope) (scuticociliates [6]; MEM medium, Dosage 500 ppm): Survival | Survival or Death of scuticociliates (activity and shape, microscope) (scuticociliates [6]; MEM medium, Dosage 1000 ppm): Survival | Survival or Death of scuticociliates (activity and shape, microscope) (scuticociliates [6]; MEM medium, Dosage 1500 ppm): Survival | Survival or Death of scuticociliates (activity and shape, microscope) (scuticociliates [6]; MEM medium, Dosage 2000 ppm): Survival | Survival or Death of scuticociliates (activity and shape, microscope) (scuticociliates [6]; MEM medium, Dosage 2500 ppm): Survival | Survival or Death of scuticociliates (activity and shape, microscope) (scuticociliates [6]; MEM medium, Dosage 3000 ppm): Survival | Survival or Death of scuticociliates (activity and shape, microscope) (scuticociliates [6]; MEM medium, Dosage 3500 ppm): Survival | Survival or Death of scuticociliates (activity and shape, microscope) (scuticociliates [6]; MEM medium, Dosage 4000 ppm): Survival

COP(=O)(OC)C(O)C(Cl)(Cl)Cl (stereo not drawn) [Trichlorfon]
Survival or Death of scuticociliates (activity and shape, microscope) (scuticociliates [3]; [8]): Survival | Survival or Death of scuticociliates (activity and shape, microscope) (scuticociliates [3]; [9]): Survival | Survival or Death of scuticociliates (activity and shape, microscope) (scuticociliates [3]; [10]): Survival | Survival or Death of scuticociliates (activity and shape, microscope) (scuticociliates [3]; [11]): Survival | Survival or Death of scuticociliates (activity and shape, microscope) (scuticociliates [3]; [12]): Survival | Survival or Death of scuticociliates (activity and shape, microscope) (scuticociliates [3]; [13]): Death | Survival or Death of scuticociliates (activity and shape, microscope) (scuticociliates [3]; [14]): Death | Survival or Death of scuticociliates (activity and shape, microscope) (scuticociliates [6]; MEM medium, Dosage 200 ppm): Survival | Survival or Death of scuticociliates (activity and shape, microscope) (scuticociliates [6]; MEM medium, Dosage 500 ppm): Survival | Survival or Death of scuticociliates (activity and shape, microscope) (scuticociliates [6]; MEM medium, Dosage 600 ppm): Δ | Survival or Death of scuticociliates (activity and shape, microscope) (scuticociliates [6]; MEM medium, Dosage 700 ppm): Death | Survival or Death of scuticociliates (activity and shape, microscope) (scuticociliates [6]; MEM medium, Dosage 800 ppm): Death | Survival or Death of scuticociliates (activity and shape, microscope) (scuticociliates [6]; MEM medium, Dosage 900 ppm): Death | Survival or Death of scuticociliates (activity and shape, microscope) (scuticociliates [6]; MEM medium, Dosage 1000 ppm): Death
